{
  "source": "ChEMBL document CHEMBL5696442",
  "about": "“Discovery of type II inhibitors of TGFβ-activated kinase 1 (TAK1) and mitogen-activated protein kinase kinase kinase kinase 2 (MAP4K2)” (J Med Chem, 2015)",
  "key": {"[1]": {"biological_target": "Phosphatidylinositol 4-kinase beta (Homo sapiens) (UniProt Q9UBF8)", "experiment": "Inhibition of PI4KB ATP labeling site harbouring VPHTQAVVLNSKDKAPYLIYVEVLECENFDTTSVPARIPENR in human Huh-7 cell lysate at 1 uM by KiNativ Profiling analysis relative to control", "assay_type": "subcellular"}, "[2]": {"biological_target": "Serine/threonine-protein kinase/endoribonuclease IRE1 (Homo sapiens) (UniProt O75460)", "experiment": "Inhibition of IRE1 Lys2 labeling site in human Huh-7 cell lysate at 1 uM by KiNativ Profiling analysis relative to control", "assay_type": "subcellular"}, "[3]": {"biological_target": "T1, DNA-PK/Ku70/Ku85 (Homo sapiens) (UniProt P78527+P12956+P13010)", "experiment": "Inhibition of DNAPK ATP labeling site harbouring KGGSWIQEINVAEKNWYPR in human Huh-7 cells at 1 uM by KiNativ Profiling analysis relative to control", "assay_type": "cell-based"}, "[4]": {"biological_target": "Microtubule-associated serine/threonine-protein kinase 1 (Homo sapiens) (UniProt Q9Y2H9)", "sequence (Q9Y2H9 whole entry, looked up)": "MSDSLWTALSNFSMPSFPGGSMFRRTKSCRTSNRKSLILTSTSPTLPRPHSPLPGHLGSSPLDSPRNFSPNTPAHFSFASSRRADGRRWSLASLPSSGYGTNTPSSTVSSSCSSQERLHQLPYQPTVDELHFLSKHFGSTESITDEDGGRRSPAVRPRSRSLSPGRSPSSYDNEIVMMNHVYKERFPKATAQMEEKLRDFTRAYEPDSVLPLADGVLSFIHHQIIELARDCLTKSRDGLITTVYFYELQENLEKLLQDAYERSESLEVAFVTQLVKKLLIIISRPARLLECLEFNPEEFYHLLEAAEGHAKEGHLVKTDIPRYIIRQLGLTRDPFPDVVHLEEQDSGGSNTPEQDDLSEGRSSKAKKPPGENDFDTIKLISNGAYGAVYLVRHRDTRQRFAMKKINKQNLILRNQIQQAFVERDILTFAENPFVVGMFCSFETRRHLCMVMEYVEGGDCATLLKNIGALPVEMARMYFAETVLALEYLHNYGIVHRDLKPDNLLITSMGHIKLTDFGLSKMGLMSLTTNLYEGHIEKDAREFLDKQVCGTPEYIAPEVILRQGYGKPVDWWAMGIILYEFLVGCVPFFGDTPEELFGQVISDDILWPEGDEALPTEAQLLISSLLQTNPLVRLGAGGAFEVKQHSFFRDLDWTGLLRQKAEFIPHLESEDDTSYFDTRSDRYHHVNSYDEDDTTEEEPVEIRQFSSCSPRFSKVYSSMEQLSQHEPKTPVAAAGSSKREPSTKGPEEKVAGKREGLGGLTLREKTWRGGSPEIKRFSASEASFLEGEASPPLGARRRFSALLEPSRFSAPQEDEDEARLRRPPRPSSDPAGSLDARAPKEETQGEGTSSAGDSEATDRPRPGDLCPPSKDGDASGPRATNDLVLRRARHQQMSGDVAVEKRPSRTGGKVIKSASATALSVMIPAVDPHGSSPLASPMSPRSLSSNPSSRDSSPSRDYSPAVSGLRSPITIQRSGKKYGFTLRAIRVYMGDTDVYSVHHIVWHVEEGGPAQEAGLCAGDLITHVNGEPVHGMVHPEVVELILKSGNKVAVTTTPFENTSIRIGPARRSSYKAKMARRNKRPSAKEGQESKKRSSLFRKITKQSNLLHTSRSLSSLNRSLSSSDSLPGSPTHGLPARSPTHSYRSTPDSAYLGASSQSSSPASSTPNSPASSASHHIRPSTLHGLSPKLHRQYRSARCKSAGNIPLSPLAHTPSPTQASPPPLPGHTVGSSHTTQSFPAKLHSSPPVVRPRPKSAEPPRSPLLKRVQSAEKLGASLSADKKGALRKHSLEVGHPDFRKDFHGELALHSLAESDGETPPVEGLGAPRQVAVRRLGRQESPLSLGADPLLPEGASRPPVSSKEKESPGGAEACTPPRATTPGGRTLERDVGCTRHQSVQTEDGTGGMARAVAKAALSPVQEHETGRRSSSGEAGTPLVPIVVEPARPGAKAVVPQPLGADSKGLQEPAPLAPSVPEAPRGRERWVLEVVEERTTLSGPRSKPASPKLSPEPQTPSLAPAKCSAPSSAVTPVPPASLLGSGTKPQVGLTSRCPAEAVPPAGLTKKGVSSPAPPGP", "experiment": "Inhibition of MAST1 Lys2 labeling site in human Huh-7 cell lysate at 1 uM by KiNativ Profiling analysis relative to control"}, "[5]": {"biological_target": "STE20-related kinase adapter protein alpha (Homo sapiens) (UniProt Q7RTN6)", "sequence (Q7RTN6 whole entry)": "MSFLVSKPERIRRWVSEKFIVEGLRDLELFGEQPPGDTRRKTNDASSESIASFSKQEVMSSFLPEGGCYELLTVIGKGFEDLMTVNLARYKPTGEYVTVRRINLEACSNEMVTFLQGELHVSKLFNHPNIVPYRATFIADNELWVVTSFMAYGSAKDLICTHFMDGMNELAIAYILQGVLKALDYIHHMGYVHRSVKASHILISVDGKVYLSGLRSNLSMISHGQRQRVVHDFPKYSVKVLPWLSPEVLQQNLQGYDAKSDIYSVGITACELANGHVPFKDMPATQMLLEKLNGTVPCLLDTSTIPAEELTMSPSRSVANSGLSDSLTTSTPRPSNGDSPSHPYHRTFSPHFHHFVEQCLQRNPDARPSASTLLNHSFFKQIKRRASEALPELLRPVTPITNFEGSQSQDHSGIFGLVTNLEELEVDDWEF", "experiment": "Inhibition of STLK5 ACT labeling site in human Huh-7 cell lysate at 1 uM by KiNativ Profiling analysis relative to control", "assay_type": "subcellular"}, "[6]": {"biological_target": "Phosphatidylinositol 4,5-bisphosphate 3-kinase catalytic subunit beta isoform (Homo sapiens) (UniProt P42338)", "experiment": "Inhibition of PIK3CB ATP labeling site harbouring VFGEDSVGVIFKNGDDLR in human Huh-7 cell lysate at 1 uM by KiNativ Profiling analysis relative to control", "assay_type": "subcellular"}, "[7]": {"biological_target": "Cyclin-dependent kinase 13 (Homo sapiens) (UniProt Q14004)", "experiment": "Inhibition of CHED Lys2 labeling site harbouring DIKCSNILLNNR in human Huh-7 cells at 1 uM by KiNativ Profiling analysis relative to control", "assay_type": "cell-based"}, "[8]": {"biological_target": "Epidermal growth factor receptor (Homo sapiens) (UniProt P00533)", "sequence (P00533 whole entry)": "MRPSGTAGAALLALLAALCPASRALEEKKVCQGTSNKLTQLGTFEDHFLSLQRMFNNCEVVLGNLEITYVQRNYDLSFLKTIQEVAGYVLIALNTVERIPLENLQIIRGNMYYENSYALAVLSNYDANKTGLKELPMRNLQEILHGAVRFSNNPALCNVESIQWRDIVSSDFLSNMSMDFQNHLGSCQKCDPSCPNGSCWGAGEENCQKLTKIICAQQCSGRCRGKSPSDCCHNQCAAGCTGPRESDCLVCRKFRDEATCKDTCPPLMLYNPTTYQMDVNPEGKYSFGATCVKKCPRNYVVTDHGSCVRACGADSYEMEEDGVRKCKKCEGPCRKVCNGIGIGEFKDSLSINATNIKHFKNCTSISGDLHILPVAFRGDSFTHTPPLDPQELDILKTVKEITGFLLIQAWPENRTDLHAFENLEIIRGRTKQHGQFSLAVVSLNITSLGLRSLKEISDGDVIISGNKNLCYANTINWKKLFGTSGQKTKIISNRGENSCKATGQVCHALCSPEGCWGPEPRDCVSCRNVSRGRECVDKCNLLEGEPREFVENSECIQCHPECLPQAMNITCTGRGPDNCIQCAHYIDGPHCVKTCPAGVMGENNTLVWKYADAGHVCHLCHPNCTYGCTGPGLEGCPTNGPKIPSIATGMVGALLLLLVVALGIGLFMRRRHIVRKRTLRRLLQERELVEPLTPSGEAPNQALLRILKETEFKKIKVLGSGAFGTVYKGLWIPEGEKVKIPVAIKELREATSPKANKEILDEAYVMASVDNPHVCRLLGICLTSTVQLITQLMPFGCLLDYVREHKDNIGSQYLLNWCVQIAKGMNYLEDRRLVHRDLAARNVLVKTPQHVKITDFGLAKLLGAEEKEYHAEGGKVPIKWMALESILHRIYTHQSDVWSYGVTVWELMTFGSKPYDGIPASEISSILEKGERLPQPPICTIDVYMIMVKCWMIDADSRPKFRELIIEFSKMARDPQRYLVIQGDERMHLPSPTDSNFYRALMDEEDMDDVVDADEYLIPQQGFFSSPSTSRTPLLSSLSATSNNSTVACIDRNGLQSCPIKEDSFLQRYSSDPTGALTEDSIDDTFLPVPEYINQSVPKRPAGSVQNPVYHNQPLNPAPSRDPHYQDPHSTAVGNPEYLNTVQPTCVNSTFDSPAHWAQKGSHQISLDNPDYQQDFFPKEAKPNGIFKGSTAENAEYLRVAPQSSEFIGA", "experiment": "Inhibition of EGFR Lys1 labeling site harbouring GLWIPEGEKVKIPVAIKELR in human Huh-7 cell lysate at 1 uM by KiNativ Profiling analysis relative to control", "assay_type": "subcellular"}, "[9]": {"biological_target": "T2, Serine/threonine-protein kinase Nek1 (Homo sapiens) (UniProt Q96PY6)", "T2 sequence (whole entry)": "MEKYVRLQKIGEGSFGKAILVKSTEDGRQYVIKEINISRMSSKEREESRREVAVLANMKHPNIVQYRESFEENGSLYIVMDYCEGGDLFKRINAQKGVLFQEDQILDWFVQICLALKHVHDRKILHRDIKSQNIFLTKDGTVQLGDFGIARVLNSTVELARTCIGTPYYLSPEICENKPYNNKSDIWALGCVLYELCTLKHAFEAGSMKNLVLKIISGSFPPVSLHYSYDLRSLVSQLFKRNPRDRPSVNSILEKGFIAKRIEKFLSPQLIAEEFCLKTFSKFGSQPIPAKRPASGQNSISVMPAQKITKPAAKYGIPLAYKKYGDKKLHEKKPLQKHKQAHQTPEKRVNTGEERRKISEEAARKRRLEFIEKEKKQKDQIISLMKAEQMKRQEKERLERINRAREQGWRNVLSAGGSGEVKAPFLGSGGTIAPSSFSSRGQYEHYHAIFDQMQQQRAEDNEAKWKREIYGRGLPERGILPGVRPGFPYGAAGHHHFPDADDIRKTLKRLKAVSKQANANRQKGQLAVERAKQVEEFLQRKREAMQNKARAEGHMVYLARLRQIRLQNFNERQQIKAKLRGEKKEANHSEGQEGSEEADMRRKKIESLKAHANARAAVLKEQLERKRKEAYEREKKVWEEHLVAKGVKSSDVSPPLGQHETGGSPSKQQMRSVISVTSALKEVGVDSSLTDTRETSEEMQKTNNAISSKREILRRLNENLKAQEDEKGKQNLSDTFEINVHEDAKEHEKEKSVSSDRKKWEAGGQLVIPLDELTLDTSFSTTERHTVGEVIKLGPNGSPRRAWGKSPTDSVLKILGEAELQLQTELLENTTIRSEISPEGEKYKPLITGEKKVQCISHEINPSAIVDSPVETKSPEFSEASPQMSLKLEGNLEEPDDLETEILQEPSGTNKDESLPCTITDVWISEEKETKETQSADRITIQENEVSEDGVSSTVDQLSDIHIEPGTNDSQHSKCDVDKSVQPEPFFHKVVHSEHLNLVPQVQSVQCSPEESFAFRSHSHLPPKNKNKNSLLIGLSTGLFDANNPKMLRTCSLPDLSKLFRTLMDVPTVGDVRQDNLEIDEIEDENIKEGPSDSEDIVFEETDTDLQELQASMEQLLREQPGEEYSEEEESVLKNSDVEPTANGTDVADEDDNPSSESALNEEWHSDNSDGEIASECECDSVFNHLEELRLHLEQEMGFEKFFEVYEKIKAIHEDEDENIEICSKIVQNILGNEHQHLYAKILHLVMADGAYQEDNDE", "experiment": "Inhibition of NEK1 K2 labeling site in human Huh-7 cells at 1 uM by KiNativ Profiling analysis relative to control", "assay_type": "cell-based"}, "[10]": {"biological_target": "Tyrosine-protein kinase Fer (Homo sapiens, UniProt P16591)", "sequence (P16591 whole entry, looked up)": "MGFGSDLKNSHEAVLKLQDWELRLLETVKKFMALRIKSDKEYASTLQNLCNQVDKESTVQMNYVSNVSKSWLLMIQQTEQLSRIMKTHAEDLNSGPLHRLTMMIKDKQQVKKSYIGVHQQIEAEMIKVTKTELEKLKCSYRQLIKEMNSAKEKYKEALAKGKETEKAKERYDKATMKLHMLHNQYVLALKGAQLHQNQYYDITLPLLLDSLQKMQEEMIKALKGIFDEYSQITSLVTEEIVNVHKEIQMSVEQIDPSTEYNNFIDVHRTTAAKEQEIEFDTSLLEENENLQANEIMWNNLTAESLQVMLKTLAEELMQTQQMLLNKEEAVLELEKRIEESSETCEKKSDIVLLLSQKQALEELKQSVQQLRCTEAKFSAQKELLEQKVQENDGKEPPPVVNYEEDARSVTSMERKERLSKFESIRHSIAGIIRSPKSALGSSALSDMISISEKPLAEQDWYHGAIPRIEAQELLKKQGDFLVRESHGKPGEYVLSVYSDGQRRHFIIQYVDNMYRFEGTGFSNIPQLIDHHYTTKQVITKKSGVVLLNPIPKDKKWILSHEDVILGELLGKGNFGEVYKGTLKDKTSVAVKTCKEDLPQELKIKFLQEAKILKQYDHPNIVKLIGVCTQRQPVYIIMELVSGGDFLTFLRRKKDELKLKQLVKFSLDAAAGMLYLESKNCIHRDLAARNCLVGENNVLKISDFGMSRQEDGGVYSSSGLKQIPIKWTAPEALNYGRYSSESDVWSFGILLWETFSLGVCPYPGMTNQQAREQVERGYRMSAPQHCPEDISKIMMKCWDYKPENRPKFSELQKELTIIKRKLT", "experiment": "Inhibition of FER K1 labeling site in human Huh-7 cells at 1 uM by KiNativ Profiling analysis relative to control", "assay_type": "cell-based"}, "[11]": {"biological_target": "Cyclin-dependent kinase 14 (Homo sapiens) (UniProt O94921)", "experiment": "Inhibition of PFTAIRE1 Lys1 labeling site in human A-375 cells at 0.05 uM by KiNativ Profiling analysis relative to control"}, "[12]": {"test_system": "MEF", "experiment": "Inhibition of IL-1alpha induced p38 phosphorylation level in mouse MEF cells preincubated for 1 hr followed by IL-1 alpha stimulation and measured after 30 mins by Western blot analysis", "assay_type": "functional, cell-based", "conditions": "dose 0.01-10 µM"}, "[13]": {"biological_target": "NT-3 growth factor receptor (Homo sapiens) (UniProt Q16288)", "experiment": "Inhibition of TRKC (unknown origin) at 10 uM by Ambit Kinomescan binding assay relative to control; values are per cent of control"}, "[14]": {"test_system": "RAW", "experiment": "Inhibition of LPS induced JNK1/2 phosphorylation in mouse RAW cells preincubated for 1 hr followed by LPS stimulation and measured after 30 mins by Western blot analysis", "assay_type": "functional, cell-based", "conditions": "dose 0.01-10 µM"}, "[15]": {"test_system": "Tyrosine-protein kinase ABL1 (Homo sapiens), P00519 [Q252H]", "experiment": "Inhibition of nonphosphorylated ABL1 Q252H mutant (unknown origin) at 1 uM by Ambit Kinomescan binding assay relative to control"}, "[16]": {"biological_target": "Serine/threonine-protein kinase Nek5 (Homo sapiens) (UniProt Q6P3R8)", "sequence (Q6P3R8 whole entry)": "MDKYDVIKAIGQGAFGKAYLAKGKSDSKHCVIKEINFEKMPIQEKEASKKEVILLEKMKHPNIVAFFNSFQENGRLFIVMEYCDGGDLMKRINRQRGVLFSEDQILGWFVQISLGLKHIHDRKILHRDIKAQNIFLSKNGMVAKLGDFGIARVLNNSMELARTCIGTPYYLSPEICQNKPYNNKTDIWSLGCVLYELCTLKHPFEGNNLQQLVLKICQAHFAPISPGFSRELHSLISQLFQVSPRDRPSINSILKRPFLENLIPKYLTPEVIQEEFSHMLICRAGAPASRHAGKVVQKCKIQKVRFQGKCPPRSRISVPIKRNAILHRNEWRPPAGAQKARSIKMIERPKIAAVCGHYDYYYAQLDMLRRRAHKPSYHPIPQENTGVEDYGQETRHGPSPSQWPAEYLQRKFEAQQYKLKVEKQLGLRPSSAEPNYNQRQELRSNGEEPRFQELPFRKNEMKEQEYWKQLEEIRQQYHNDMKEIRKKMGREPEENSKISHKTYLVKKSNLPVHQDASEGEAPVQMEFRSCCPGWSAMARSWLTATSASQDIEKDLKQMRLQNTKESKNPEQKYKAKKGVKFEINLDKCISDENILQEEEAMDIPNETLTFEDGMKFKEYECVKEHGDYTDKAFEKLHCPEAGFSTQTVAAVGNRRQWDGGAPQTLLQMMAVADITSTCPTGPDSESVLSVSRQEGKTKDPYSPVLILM", "experiment": "Inhibition of NEK5 (unknown origin) at 1 uM by Ambit Kinomescan binding assay relative to control; values are per cent of control"}, "[17]": {"biological_target": "T1, DNA-PK/Ku70/Ku85 (Homo sapiens)", "experiment": "Inhibition of DNAPK ATP labeling site harbouring KGGSWIQEINVAEK in human A-375 cells at 0.05 uM by KiNativ Profiling analysis relative to control", "assay_type": "cell-based"}},
  "data": [
    {"smiles": "CNc1cc(Oc2cc(C(=O)Nc3cc(N4CCN(C)CC4)cc(C(F)(F)F)c3)ccc2C)ncn1", "values": [
      {"measurement": "inhibition", "setting": "[1]", "value": 14.7, "unit": "%"},
      {"measurement": "inhibition", "setting": "[2]", "value": -2.5, "unit": "%"},
      {"measurement": "inhibition", "setting": "[3]", "value": 68.1, "unit": "%"},
      {"measurement": "inhibition", "setting": "[4]", "value": 7.2, "unit": "%"},
      {"measurement": "inhibition", "setting": "[5]", "value": 5.3, "unit": "%"},
      {"measurement": "inhibition", "setting": "[6]", "value": -1.3, "unit": "%"},
      {"measurement": "inhibition", "setting": "[7]", "value": 38.1, "unit": "%"},
      {"measurement": "inhibition", "setting": "[8]", "value": 9.9, "unit": "%"}
    ]},
    {"smiles": "CCN1CCN(Cc2ccc(NC(=O)c3ccc(C)c(Oc4ccnc5[nH]ccc45)c3)cc2C(F)(F)F)CC1", "values": [
      {"measurement": "inhibition", "setting": "[9]", "value": -5.8, "unit": "%"},
      {"measurement": "inhibition", "setting": "[10]", "value": 52.4, "unit": "%"},
      {"measurement": "inhibition", "setting": "[11]", "value": 8.3, "unit": "%"},
      {"measurement": "inhibition", "setting": "[12]", "value": "Dose-Dependent Effect"},
      {"measurement": "residual activity", "setting": "[13]", "value": 3.8, "unit": "%"},
      {"measurement": "inhibition", "setting": "[14]", "value": "Dose-Dependent Effect"}
    ]},
    {"smiles": "CCN1CCN(Cc2ccc(NC(=O)c3ccc(C)c(/C=C/c4cnc5[nH]ccc5c4OC)c3)cc2C(F)(F)F)CC1", "values": [
      {"measurement": "inhibition", "setting": "[15]", "value": 1.4, "unit": "%"},
      {"measurement": "residual activity", "setting": "[16]", "value": 47, "unit": "%"},
      {"measurement": "inhibition", "setting": "[17]", "value": 17.7, "unit": "%"}
    ]}
  ]
}
